Results as given in patent US11793824B2, “Administration of nicotinamide mononucleotide in the treatment of disease” (Washington University, priority 2013, dated 2023).

Columns and labels:
NAMPT rod-CKO mice = test: ERG rescue in NAMPT rod-CKO mice; format: in vivo, mouse
Text: The inventors examined the effect of selectively disrupting NAD biosynthesis within PR. The inventors utilized the cre-lox strategy to generate mice that had NAMPT conditionally deleted from either rods (NAMPT rod-CKO) or cones (NAMPT cone-CKO). The NAMPT fl/fl mice as well as the rhodopsin-cre and cone opsin-cre mice have been previously characterized. Both rod and cone cko mice are generated with normal Mendelian frequencies and are born normal with no observable systemic abnormalities (data not shown). All structural and functional analyses performed in CKO mice are analyzed in comparison to littermate controls. Rods constitute a majority of the PR neurons (97% of all photoreceptors). […] Neurosensory retinal degeneration was associated with secondary atrophy and pallor of the optic nerve (FIG. 29C).
The present inventors determined that exogenous supplementation with NMN is able to rescue PR neurons from cell death in CKO mice. Intraperitoneal (i.p.) delivery was chosen to obtain early and sustained levels of NMN. In these experiments, NAMPT rod-CKO mice were given NMN (150 mg/kg) or PBS i.p. daily starting at day P5. […] There was no effect of NMN on littermate control animals.

[1] = Insulin tolerance test in old mice; format: in vivo, mouse; conditions: 100 and 300 mg/kg groups, body weight-matched, 12-month time point, 17 month-old mice
Method: (§1) A 12 month-long NMN administration study using wild-type mice under a regular chow-fed condition was conducted. NMN was administered through drinking water, and two doses of NMN, 100 and 300 mg/kg body weight/day, were tested. […] To assess beneficial and possible adverse effects of NMN, a variety of physiological parameters were periodically monitored, including body weight, body temperature, food and water intake, fed and fasted blood glucose levels, fed and fasted plasma lipid panels, and glucose and insulin tolerance, in NMN-administered and control mice. Blood chemistry, blood cell counts, urine strip test, and other physiological tests including physical activity test were also checked.
(See Methods; Administration of NMN through Drinking Water and Determination of NMN Stability and Toxicity). As illustrated in FIG. 9A-B, insulin tolerance results from body weight-matched mice in the control and the 100 and 300 mg/kg NMN-administered groups at the 12-month time point are presented. Blood glucose levels (FIG. 9A) and percent glucose changes (FIG. 9B) after insulin injection are shown. The results were analyzed with two-way RANOVA and one-way ANOVA. All values are presented as mean±SEM (n=10-15 for each group).

[2] = Tear production, modified Schirmer's test; format: in vivo, mouse
Method: as §1
In this long-term NMN administration study (See Methods; Administration of NMN through Drinking Water and Determination of NMN Stability and Toxicity), tear production was assessed in control and NMN-administered mice with modified Schirmer's test. All values are presented as mean±SEM. **p<0.01.

[3] = tested on: Nampt Ad-Cre infected NSPCs; test: Nampt Ad-Cre infected neurospheres with or without NMN: NAD+, proliferation, differentiation; format: cell-based, mouse
Method: NAD+ levels were determined using an HPLC system (Shimadzu) with a Supelco LC-18-T column (15 cm×[…]; Sigma), as described previously (Yoshino et al, 2011).
Neurospheres derived from Nampt^flox/flox mice were infected with Ad5 Cre recombinase- or b-galactosidase-expressing (LacZ, control) adenoviruses at an MOI of 100. All assessments were performed at least 6 days post infection.
Neurospheres derived from Nampt^flox/flox mice were dissociated by trypsin digestion and seeded at similar cell densities in 24-well plates with fresh growth medium. Every 24 hours, neurospheres from triplicate wells were collected, dissociated, and counted on a hemocytometer using 0.2% trypan blue exclusion to distinguish viable cells. For analysis of neurosphere diameter, the largest neurosphere in each well was imaged (20× objective) and the diameter was calculated using ImageJ. For secondary neurosphere analysis, the total number of neurospheres in each well was counted at 7 days post-plating.
Three to five days after their first passage, neurospheres were trypsinized, washed with dissociation medium, and plated at 150,000 cells per well in 24-well plates in differentiation medium [growth medium without FGF and EGF and with BDNF (5 ng/mL, Peprotech, 450-02) on glass coverslips coated with poly-D-lysine (50 ug/mL; Sigma) and laminin (20 ug/mL; BD Biosciences)]. 6-well plates were coated with poly-D-lysine (20 ug/mL) and laminin (10 ug/mL). […] The percentage of oligodendrocyte precursor cells (OPCs) generated was analyzed after 2 d of differentiation, and the percentage of differentiated oligodendrocytes was analyzed after 6-7 d of differentiation. […]
Nampt Ad-Cre NSPCs were unable to increase their cell number between 24 and 144 hours of culture. […] Since NSPC self-renewal decisions can also contribute to cell number, the inventors assessed secondary neurosphere formation, an assay that quantifies the ability of neurosphere inhabitant cells to reformulate neurospheres upon dissociation. […]

NC(=O)c1ccc[n+]([C@@H]2O[C@H](COP(=O)([O-])O)[C@@H](O)[C@H]2O)c1 [NMN, nicotinamide mononucleotide]
effect on littermate control animals (NAMPT rod-CKO mice; NMN 150 mg/kg i.p. daily): no effect
photopic and scotopic function (ERG) (NAMPT rod-CKO mice; NMN 150 mg/kg i.p. daily from P5, ERG at 4 weeks, vs PBS): significant rescue
insulin sensitivity (insulin tolerance test) [1]: significantly enhanced insulin sensitivity
tear production ([2]; 300 mg/kg group): comparable to the maximal tear production through the mouse lifespan
tear production ([2]; 18 month-old mice, 100 and 300 mg/kg): increased tear production in a dose-dependent manner
rescue of reduction in NAD+ levels in Nampt Ad-Cre NSPCs ([3]; NMN 100 μM, 48 hours, eight days post deletion): rescued
proliferative potential of Nampt Ad-Cre cells ([3]; NMN 200 μM): fully reactivate
defects in differentiation (oligodendrogenesis, Nestin+ retention) of Nampt Ad-Cre NSPCs ([3]; treatment with NMN, 6-7 days of differentiation): rescued defects in oligodendrogenesis
